Structures can show the parent of a compound that is named as a salt. Marks after values point to notes of the source that are not given here. Each block holds one compound with its values, some of them ahead of it.
Experiments:
[1] = rats exposed to sulcotrione; cited from earlier work
[2] = Plasma metabolite profiling (GC-MS, LC-MS, SPE-LC-MS) of rats dosed once daily over 28 days; treatment ratios versus untreated control; type: in vivo, rat
Procedure, shortened: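 Male and female rats (5/sex/group) dosed once daily for 28 days; fasted anaesthetized animals bled retro-orbitally (EDTA plasma) on days 7, 14, 28, stored −80 °C under N2. Polar and lipid fractions profiled by GC-MS (derivatized), LC-MS/MRM; steroids by online SPE-LC-MS. Pool-normalized data; treatment ratios vs sex-matched controls, Welch test p-values.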

[3] = plasma, female rats, day 7, high dose, Table 4a
[4] = plasma, female rats, day 7, high dose, Table 4b
[5] = plasma, female rats, day 7, high dose, Table 6c
[6] = plasma, female rats, day 7, high dose, Table 6d
[7] = plasma, female rats, day 14, high dose, Table 4a
[8] = plasma, female rats, day 14, high dose, Table 4b
[9] = plasma, female rats, day 14, high dose, Table 6c
[10] = plasma, female rats, day 14, high dose, Table 6d
[11] = plasma, female rats, day 28, high dose, Table 4a
[12] = plasma, female rats, day 28, high dose, Table 4b
[13] = plasma, female rats, day 28, high dose, Table 6c
[14] = plasma, female rats, day 28, high dose, Table 6d
[15] = plasma, male rats, day 7, high dose, Table 3a
[16] = plasma, male rats, day 7, high dose, Table 3b
[17] = plasma, male rats, day 14, high dose, Table 3a
[18] = plasma, male rats, day 14, high dose, Table 3b
[19] = plasma, male rats, day 28, high dose, Table 3a
[20] = plasma, male rats, day 28, high dose, Table 3b
[21] = plasma, female rats, day 28, high dose, Table 6a
[22] = plasma, female rats, day 28, high dose, Table 6b
[23] = plasma, female rats, day 28, low dose, Table 1c
[24] = plasma, female rats, day 28, low dose, Table 1d
[25] = plasma, male rats, day 28, low dose, Table 1b

SMILES: CS(=O)(=O)c1ccc(C(=O)C2C(=O)CCCC2=O)c(Cl)c1 [sulcotrione]
corneal lesions [1]: corneal lesions that varied in severity from partial or hazy opacity to complete opacity

Ceramide (d18:1,C24:1), ratio versus control [2, 3]: 1.23
Docosapentaenoic acid (C22:cis[7,10,13,16,19]5), ratio versus control [2, 3]: 2.26*
Elaidic acid (C18:trans[9]1), ratio versus control [2, 3]: 1.52*
Galactose, lipid fraction, ratio versus control [2, 3]: 1.46*
Myristic acid (C14:0), ratio versus control [2, 3]: 1.53*
Phosphatidylcholine (C16:0,C16:0), ratio versus control [2, 3]: 1.4*
Progesterone, ratio versus control [2, 3]: 9.81*
TAG No 07, ratio versus control [2, 3]: 3.4*
Creatinine, ratio versus control [2, 4]: 0.87
Glutamate, ratio versus control [2, 4]: 0.67*
Glycine, ratio versus control [2, 4]: 0.86*
Lactate, ratio versus control [2, 4]: 0.6*
Myristic acid (C14:0), ratio versus control [2, 4]: 1.53
Normetanephrine, ratio versus control [2, 4]: 0.73*
Phosphocreatine, ratio versus control [2, 4]: 0.61*
Serotonin (5-HT), ratio versus control [2, 4]: 0.11*
Uric acid, ratio versus control [2, 4]: 0.51*
4-Hydroxysphinganine (t18:0, Phytosphingosine), total, ratio versus control [2, 5]: 1.49*
Docosahexaenoic acid (C22:cis[4,7,10,13,16,19]6), ratio versus control [2, 5]: 1.7*
Docosapentaenoic acid (C22:cis[7,10,13,16,19]5), ratio versus control [2, 5]: 2.26*
Galactose, lipid fraction, ratio versus control [2, 5]: 1.46*
Palmitic acid (C16:0), ratio versus control [2, 5]: 1.56*
Phosphatidylcholine (C16:0,C16:0), ratio versus control [2, 5]: 1.4*
Phosphatidylcholine (C16:0,C22:6), ratio versus control [2, 5]: 1.02
Phosphatidylcholine No 02, ratio versus control [2, 5]: 1.17*
TAG (C16:0,C16:1), ratio versus control [2, 5]: 4.38*
TAG (C16:0,C18:1,C18:3), ratio versus control [2, 5]: 2.8*
TAG (C16:0,C18:2), ratio versus control [2, 5]: 2.47*
TAG (C18:2,C18:2), ratio versus control [2, 5]: 2.44*
TAG (C18:2,C18:3), ratio versus control [2, 5]: 3.48*
TAG (C18:3,C18:2,C18:1), ratio versus control [2, 5]: 3.89*
TAG No 059, ratio versus control [2, 5]: 3.12*
4-Hydroxyphenylpyruvate, ratio versus control [2, 6]: 0.42*
Glycine, ratio versus control [2, 6]: 0.86*
Lactate, ratio versus control [2, 6]: 0.6*
Lysophosphatidylcholine (C16:0), ratio versus control [2, 6]: 0.99*
Uric acid, ratio versus control [2, 6]: 0.51*
Ceramide (d18:1,C24:1), ratio versus control [2, 7]: 1.47*
Docosapentaenoic acid (C22:cis[7,10,13,16,19]5), ratio versus control [2, 7]: 1.55*
Elaidic acid (C18:trans[9]1), ratio versus control [2, 7]: 0.97
Galactose, lipid fraction, ratio versus control [2, 7]: 1.17*
Myristic acid (C14:0), ratio versus control [2, 7]: 1.09
Phosphatidylcholine (C16:1,C18:2), ratio versus control [2, 7]: 1.06
Progesterone, ratio versus control [2, 7]: 1.28
TAG No 07, ratio versus control [2, 7]: 0.62
myo-Inositol, lipid fraction, ratio versus control [2, 7]: 1.26*
Creatinine, ratio versus control [2, 8]: 1.02
Glutamate, ratio versus control [2, 8]: 0.71*
Glycine, ratio versus control [2, 8]: 0.86*
Lactate, ratio versus control [2, 8]: 0.66
Myristic acid (C14:0), ratio versus control [2, 8]: 1.09
Normetanephrine, ratio versus control [2, 8]: 0.88
Serotonin (5-HT), ratio versus control [2, 8]: 0.59
Uric acid, ratio versus control [2, 8]: 0.5*
4-Hydroxysphinganine (t18:0, Phytosphingosine), total, ratio versus control [2, 9]: 1.43*
Docosahexaenoic acid (C22:cis[4,7,10,13,16,19]6), ratio versus control [2, 9]: 1.43*
Docosapentaenoic acid (C22:cis[7,10,13,16,19]5), ratio versus control [2, 9]: 1.55*
Galactose, lipid fraction, ratio versus control [2, 9]: 1.17*
Phosphatidylcholine (C16:0,C20:5), ratio versus control [2, 9]: 0.99
Phosphatidylcholine (C16:0,C22:6), ratio versus control [2, 9]: 1.22*
Phosphatidylcholine (C16:1,C18:2), ratio versus control [2, 9]: 1.06
Phosphatidylcholine No 02, ratio versus control [2, 9]: 1.19*
TAG (C16:0,C16:1), ratio versus control [2, 9]: 0.81
TAG (C16:0,C18:1,C18:3), ratio versus control [2, 9]: 0.76
TAG (C16:0,C18:2), ratio versus control [2, 9]: 0.91
TAG (C18:2,C18:2), ratio versus control [2, 9]: 0.81
TAG (C18:2,C18:3), ratio versus control [2, 9]: 0.76
TAG (C18:3,C18:2,C18:1), ratio versus control [2, 9]: 0.91
TAG No 059, ratio versus control [2, 9]: 0.84
4-Hydroxyphenylpyruvate, ratio versus control [2, 10]: 0.21*
Glycine, ratio versus control [2, 10]: 0.86*
Lactate, ratio versus control [2, 10]: 0.66
Lysophosphatidylcholine (C16:0), ratio versus control [2, 10]: 1
Uric acid, ratio versus control [2, 10]: 0.5*
Ceramide (d18:1,C24:1), ratio versus control [2, 11]: 1.2
Docosapentaenoic acid (C22:cis[7,10,13,16,19]5), ratio versus control [2, 11]: 1.54*
Elaidic acid (C18:trans[9]1), ratio versus control [2, 11]: 1.18
Galactose, lipid fraction, ratio versus control [2, 11]: 1.22
Myristic acid (C14:0), ratio versus control [2, 11]: 1.18
Phosphatidylcholine (C16:1,C18:2), ratio versus control [2, 11]: 1.5*
Progesterone, ratio versus control [2, 11]: 2.41*
TAG No 07, ratio versus control [2, 11]: 1.02
myo-Inositol, lipid fraction, ratio versus control [2, 11]: 1.2
Creatinine, ratio versus control [2, 12]: 0.89*
Glutamate, ratio versus control [2, 12]: 0.76*
Glycine, ratio versus control [2, 12]: 0.91
Lactate, ratio versus control [2, 12]: 0.62*
Myristic acid (C14:0), ratio versus control [2, 12]: 1.18
Normetanephrine, ratio versus control [2, 12]: 0.95
Phosphocreatine, ratio versus control [2, 12]: 0.47
Serotonin (5-HT), ratio versus control [2, 12]: 1.37
Uric acid, ratio versus control [2, 12]: 0.73*
Docosahexaenoic acid (C22:cis[4,7,10,13,16,19]6), ratio versus control [2, 13]: 1.26
Docosapentaenoic acid (C22:cis[7,10,13,16,19]5), ratio versus control [2, 13]: 1.54*
Galactose, lipid fraction, ratio versus control [2, 13]: 1.22
Palmitic acid (C16:0), ratio versus control [2, 13]: 1.2*
Phosphatidylcholine (C16:0,C20:5), ratio versus control [2, 13]: 1.17*
Phosphatidylcholine (C16:1,C18:2), ratio versus control [2, 13]: 1.5*
Phosphatidylcholine No 02, ratio versus control [2, 13]: 1.2*
TAG (C16:0,C16:1), ratio versus control [2, 13]: 1.75*
TAG (C16:0,C18:1,C18:3), ratio versus control [2, 13]: 1.3*
TAG (C16:0,C18:2), ratio versus control [2, 13]: 1.38*
TAG (C18:2,C18:3), ratio versus control [2, 13]: 1.46*
TAG (C18:3,C18:2,C18:1), ratio versus control [2, 13]: 1.44*
TAG No 059, ratio versus control [2, 13]: 1.58*
4-Hydroxyphenylpyruvate, ratio versus control [2, 14]: 1.02
Glycine, ratio versus control [2, 14]: 0.91
Lactate, ratio versus control [2, 14]: 0.62*
Lysophosphatidylcholine (C16:0), ratio versus control [2, 14]: 0.98*
Uric acid, ratio versus control [2, 14]: 0.73*
3-Methoxytyrosine, ratio versus control [2, 15]: 1.12
Arginine, ratio versus control [2, 15]: 1.22*
Tryptophan, ratio versus control [2, 15]: 1.1
Glycine, ratio versus control [2, 16]: 0.82*
Threonic acid, ratio versus control [2, 16]: 0.66*
Arginine, ratio versus control [2, 17]: 1.11*
myo-Inositol-2-phosphate, lipid fraction, ratio versus control [2, 17]: 1.44*
Glycine, ratio versus control [2, 18]: 0.95
Threonic acid, ratio versus control [2, 18]: 0.52*
3-Methoxytyrosine, ratio versus control [2, 19]: 1.47*
Arginine, ratio versus control [2, 19]: 0.98
Tryptophan, ratio versus control [2, 19]: 1.18*
myo-Inositol-2-phosphate, lipid fraction, ratio versus control [2, 19]: 1.63*
Glycine, ratio versus control [2, 20]: 0.86*
Threonic acid, ratio versus control [2, 20]: 0.63*
3-Methoxytyrosine, ratio versus control ([2]; rat, in vivo): 1.33*
4-Hydroxysphinganine (t18:0, Phytosphingosine), total, ratio versus control ([2]; rat, in vivo): 1.16*
Palmitic acid (C16:0), ratio versus control ([2]; rat, in vivo): 1.12*
Phosphatidylcholine (C16:0,C16:0), ratio versus control ([2]; rat, in vivo): 1.32*
Phosphatidylcholine (C16:0,C20:5), ratio versus control ([2]; rat, in vivo): 1.05*
Phosphatidylcholine (C16:0,C22:6), ratio versus control ([2]; rat, in vivo): 1.15*
Phosphatidylcholine (C16:1,C18:2), ratio versus control ([2]; rat, in vivo): 1.41*
TAG (C18:2,C18:2), ratio versus control ([2]; rat, in vivo): 1.41*
Tryptophan, ratio versus control ([2]; rat, in vivo): 1.16*
myo-Inositol, lipid fraction, ratio versus control ([2]; rat, in vivo): 1.41*
myo-Inositol-2-phosphate, lipid fraction, ratio versus control ([2]; rat, in vivo): 1.41*
SMILES: O=C1Cc2cc(CCN3CCN(c4nsc5ccccc45)CC3)c(Cl)cc2N1 [Ziprasidone hydrochloride]

SMILES: C#C[C@]1(O)CC[C@H]2[C@@H]3CCc4cc(O)ccc4[C@H]3CC[C@@]21C [17-alpha-Ethynylestradiol]
3-Methoxytyrosine, ratio versus control [2, 21]: 1.29*
Isoleucine, ratio versus control [2, 21]: 1.07
4-Hydroxy-3-methoxyphenylglycol (HMPG), ratio versus control [2, 22]: 0.7*
14-Methylhexadecanoic acid, ratio versus control [2, 22]: 0.86*
16-Methylheptadecanoic acid, ratio versus control [2, 22]: 0.29*
17-Methyloctadecanoic acid, ratio versus control [2, 22]: 0.46*
Ceramide (d18:1,C24:1), ratio versus control [2, 22]: 0.6*
Choline plasmalogen No 03, ratio versus control [2, 22]: 0.38*
Homovanillic acid (HVA), ratio versus control [2, 22]: 0.47*
Isopalmitic acid (C16:0), ratio versus control [2, 22]: 0.51*
Lactate, ratio versus control [2, 22]: 0.99
Myristic acid (C14:0), ratio versus control [2, 22]: 0.59*
Phosphatidylcholine (C16:0, C20:4), ratio versus control [2, 22]: 0.78*
Phosphatidylcholine No 04, ratio versus control [2, 22]: 0.39*
Pyruvate, ratio versus control [2, 22]: 0.87*

Coenzyme Q9, ratio versus control [2, 23]: 1.22 *
Valine, ratio versus control [2, 23]: 1.36 *
Cysteine, ratio versus control [2, 24]: 0.86 *
Glutamate, ratio versus control [2, 24]: 0.81 *
Pyruvate, ratio versus control [2, 24]: 0.65 *
myo-Inositol, ratio versus control [2, 24]: 0.69 *
3-Indoxylsulfate, ratio versus control ([2]; plasma, male rats, day 28, low dose, Table 1a): 1.78^
Cysteine, ratio versus control [2, 25]: 0.73 *
Ketoleucine, ratio versus control [2, 25]: 0.76 *
Malate, ratio versus control [2, 25]: 0.84 *
Phosphatidylcholine (C16:0, C20:4), ratio versus control [2, 25]: 0.99 *
Phosphatidylcholine (C16:0, C22_6), ratio versus control [2, 25]: 0.95 *
Isoleucine, ratio versus control ([2]; rat, in vivo): 1.23 *
Pantothenic acid, ratio versus control ([2]; rat, in vivo): 1.25 *
Phosphate (inorganic and organic phosphates), ratio versus control ([2]; rat, in vivo): 1.25 *
alpha-Tocopherol, ratio versus control ([2]; rat, in vivo): 1.16 *
SMILES: O=C1NC(=O)C(c2ccccc2)(c2ccccc2)N1 [Phenytoin]
